Laboratory results reported in patent US20250043353A1, “BIOMARKERS OF RESPONSE TO SELECTIVE INHIBITORS OF AURORA A KINASE” (Millennium Pharmaceuticals, Inc., priority 2015, published 2025).

Tests used:
[1] = test system: advanced solid tumor types; conditions: patients with relapsed/refractory BC, SCLC, NSCLC, HNSCC, GE adenocarcinoma; activity in all except NSCLC; cited from earlier work
[2] = test system: advanced solid tumor types; assay: association of somatically mutated genes/pathways (whole exome sequencing) with response to alisertib in trial patients; assay type: in vivo, human; conditions: for est: HR (hazard ratio) for progression free survival (PFS): adjusted by baseline, stratified by indication; for est: mean % best tumor size change between mutant and WT groups: all five tumor types, adjusted by tumor indication and tumor baseline size
Description: The best tumor size change and progression-free survival (PFS) of the patients were used as the efficacy response endpoints.
The genomic DNA was isolated from 47 patients with 2-4 slides of 5 micron thickness from archived tumor biopsies with Qiagen FFPE kit (Qiagen, Germany). Genomic DNA from blood samples were extracted utilizing blood DNA kit (Qiagen, Germany). Tumor-normal (blood) paired DNAs were sequenced by whole exome DNA sequencing employing Agilent SureSelect exome capture and Illumina Hi-Seq™ technologies.
The downstream analysis was designed to identify potential biomarkers predictive of drug response using the high-confidence mutations obtained from the middle-stream analysis. A linear regression model and Cox proportional hazard model were used for best tumor size change and PFS as endpoints, respectively. Tumor type was considered as a covariate in both models to adjust its confounding effect. In case of linear regression for best tumor size change as an endpoint, baseline tumor size was added as an additional covariate since baseline tumor size is […] correlated with the endpoint. In the following linear regression equation, y=β0+β1x+βc1c1+βc2c2+ε, y, x, c1, c2, and c represent the best tumor size change, a single gene mutation status, tumor type, baseline tumor size, and random error, respectively. When the gene harbors high-confidence mutation(s), x becomes 1; otherwise, it is 0. The 1st covariate c1 was converted into five binary variables to represent the five different tumor types and the 2nd covariate c2 is a continuous variable. As a result, the coefficient fi indicates the contribution of the mutated gene to sensitivity or resistance to alisertib treatment after adjusting the potential confounding effects of the covariates. A p-value was computed for testing the null hypothesis β1=0. Since multiple genes were tested using these models and the p-values were corrected for multiple hypothesis testing using false discovery rate (FDR).
A similar approach was used for the pathway association analysis. A pathway can be defined as a group of genes that are known to be interacting together for a common biological function. […] Two types of statistical tests were selected in order to test the degree of association of mutations on the pathway level and alisertib treatment outcome, particularly best tumor size change. […] A linear regression model was built using this binary variable as an independent variable and tumor type and baseline tumor size were used as covariates, similar to the equation used for gene-level association. Secondly, sequence kernel association tests (SKAT) were run to account for cases where individual mutated genes in a pathway contribute differently to drug sensitivity or resistance. […] As the two methods, linear regression and SKAT, provide different angles in terms of association between pathways and alisertib response, the smaller p-value (the best of the two tests, BOT from here on) was selected as a representative p-value for each pathway. The p-values of the pathways were subjected to multiplicity adjustments in order to control the type I error of the statistical tests.
The Cox proportional hazard models were used to see potential association between mutated genes/pathways and progression-free survival (PFS).
For single gene-level association, the Benjamini & Hochberg (BH) method was used to compute FDR (also known as q-value). For pathway-level association, as multiple statistical association analyses (linear regression, SKAT and BOT) were conducted for each pathway, and pathways are often correlated through commonly present genes, multiplicity adjustment becomes more complicated. To address these challenges, a re-sampling-based multiplicity adjustment was implemented. The null distributions of p-values from pathway association tests were simulated using parametric bootstrapping. […]

COc1cc(Nc2ncc3c(n2)-c2ccc(Cl)cc2C(c2c(F)cccc2OC)=NC3)ccc1C(=O)O [alisertib, 4-{[9-chloro-7-(2-fluoro-6-methoxyphenyl)-5H-pyrimido[5,4-d][2]benzazepin-2-yl]amino}-2-methoxybenzoic acid]
single agent antitumor activity [1]: clinically meaningful antitumor activity in four of the five solid tumor types
est: HR (hazard ratio) for progression free survival (PFS) ([2]; EP300 mutated vs WT): 0.271
est: mean % best tumor size change between mutant and WT groups ([2]; FAT1 mutated): −39.70%
est: mean % best tumor size change between mutant and WT groups ([2]; FBXW7 mutated): 41.96%
est: HR (hazard ratio) for progression free survival (PFS) ([2]; MLL3 mutated vs WT): 0.129
est: mean % best tumor size change between mutant and WT groups ([2]; MLL3 mutated): −28.84%
response (best tumor size change) of patients with mutated pathway versus wild type ([2]; patients with mutated WNT or Hippo signaling pathways vs WT): respond more favorably
